Data as given in a melting point compilation (Tetko et al.; mined from patent text by program, amines drawn as free bases though some values may be those of a salt).

SMILES	melting point
CCOc1ccc(C2=NN(C3CCN(C(C)=O)CC3)C(=O)[C@@H]3CC=CC[C@H]23)cc1OCC	148 to 150 °C
COc1ccc(-c2cccc(Cn3cncn3)c2)cc1Cl	78.2 to 78.4 °C
OCCCCOCCCCOCCCCOCCCCOCCCCO	34.5 to 36.5 °C
CCC(CC)c1nn(-c2ccc(Br)cn2)cc1CCCOc1c(C)cccc1CC(=O)O	120 to 121 °C
CSc1cnnc(Cl)c1	98 to 100 °C
COc1ccc(Cl)cc1C(=O)NCCc1ccc(I)c(S(=O)(=O)N=CN(C)C)c1	183 to 186 °C
Cc1cccc(CCC(=O)c2ccccc2)c1NC(=O)CC1c2ccccc2Oc2ccccc21	175 to 176 °C
COC(=O)CCC(C(=O)c1cccc(I)c1)c1ccccc1C (racemic)	106 to 108 °C
O=[N+]([O-])c1ccc(Oc2ccc([N+](=O)[O-])cc2-c2ccc(C(F)(F)F)cc2C(F)(F)F)c(-c2ccc(C(F)(F)F)cc2C(F)(F)F)c1	72 to 73 °C
CCOc1cc(C(CS(C)(=O)=O)N2C(=O)c3cccc(CNC(C)=O)c3C2=O)ccc1OC (configuration not stated)	84 to 86 °C
CC1(C)CC(=O)Oc2ccc(O)cc21	95 to 96 °C
Cc1[nH]c(=S)n(Nc2cccc(Cl)c2)c1-c1ccc(Cl)cc1	225 °C
CC(=O)Nc1nc(NC(C)CCc2ccccc2)nc(C(C)(C)F)n1 (configuration not stated)	91 °C
Cc1cc2nc3c4cc(O)ccc4n(CCN(C)C)c3nc2cc1C	> 260 °C
Cc1cc(-c2c(-c3ccc(S(N)(=O)=O)cc3)cnn(-c3cccc(Cl)c3)c2=O)ccc1F	187 to 188 °C
CS(=O)(=O)c1ccc(-c2[nH]c3ccccc3c2-c2ccccc2)cc1	221 to 222 °C
COc1ccc(F)cc1C(C)(C)CC(O)(CN1CC(=O)N(C)c2ccccc21)C(F)(F)F (configuration not stated)	132 to 134 °C
N[C@@H](Cc1ccccc1)C(=O)N(CC1CC(Br)=NO1)C(=O)OCc1ccccc1 (some centres not stated)	122 to 125 °C
CC(=O)CSc1nc2ccccc2n1C	87 to 88 °C
O=c1ccn([C@@H]2C[C@H](O)[C@@H](O)[C@H]2O)c(=O)[nH]1 (racemic)	229 to 230 °C
COc1ccc([C@@]2(C)CNC(=O)O2)cc1OC1CCCC1	80 °C
CCOc1nc(=O)n(C(=O)NCCCl)s1	82 °C
CC(C)(C)NC(=O)NC(C)(C)C#N	204 to 205 °C
O=S(=O)(NCc1ccccc1)c1cc(F)c2cccnc2c1O	186 °C
C/C(=C/c1ccc(C(=O)O)cc1)c1cc2c(cc1C)CCC(C)(C)CC2	223 to 225 °C

SMILES	melting point
CCOC(=O)NN=C(C)c1cccc(C(F)(F)F)c1	94 to 96 °C
CCCc1c(OCCCCCC(=O)c2ccc3cc(O)c(O)cc3c2)ccc(C(=O)O)c1O	205 to 207 °C
O=C1CCCc2ccc(OCc3ccc(Cl)c(Cl)c3)cc21	122 to 123 °C
COc1ccc(C2=NN=C(C)C(C)c3cc(OC)c(OC)cc32)cc1OC (configuration not stated)	201 to 203 °C
COC(=O)C(C)(C)CCOc1ccc(C2=NNC(=O)CC2)cc1Cl	109 to 110 °C
CC(C)(C)OC(=O)NC1CCCCCC=CC2CC2(C(=O)NS(=O)(=O)C2CC2)NC(=O)C2CC(OC(=O)c3ccc(CC(=O)O)cc3)CN2C1=O (configuration not stated)	154 to 156 °C
CC(C)c1onc(-c2ccccc2)c1S(=O)(=O)c1ccc(O)cc1	173 to 174 °C
COC(=O)C(C#N)c1nc(-c2c(F)cccc2F)cs1 (configuration not stated)	219 to 224 °C
O=C(c1ccc(-c2ccn(C(=O)Cc3ccc(Cl)cc3Cl)n2)cc1)N1Cc2cccn2Cc2ccccc21	130 to 140 °C
CCCCNC(=O)C(C)(C)n1cc(C)c(-c2ccccc2)n1	53 to 57 °C
NC(=O)N(O)CCNC(=O)c1ccc2ccccc2n1	189 to 190 °C
CCOc1cc(-c2cc(C(F)F)n3ncc(C(=O)Nc4cccc(S(C)(=O)=O)c4)c3n2)ccc1C(F)(F)F	211 °C
O=C1CN(c2cc(Oc3ccccc3)ccc2O)S(=O)(=O)N1	153 to 157 °C
Nc1ccn(C2CN3CCC2CC3)n1 (configuration not stated)	112 to 115 °C
CCCCN(CCCC)C(=O)c1cc(C(C)(C)C)c(O)c(C(C)(C)C)c1	94 to 95 °C
Nc1c(F)c(F)nc(-n2cc(C(=O)O)c(=O)c3cc(F)c(F)c(Cl)c32)c1F	280 to 283 °C
C#CC1C2=C(c3ccc(OCc4ccccc4[N+](=O)[O-])cc3N1C(=O)Oc1ccccc1)C(O[Si](C)(C)C(C)(C)C)CCC2 (configuration not stated)	188 to 190 °C
O=C(O)c1cc(=O)c2cc([N+](=O)[O-])ccc2s1	220 °C
COc1nc(NC#N)nc(OC)n1	> 300 °C
CCCn1nc2c(N)nc3ccccc3c2c1CC(C)(C)NC(=O)C(C)C	177 to 178 °C
CCOCc1nc2c(N)nc3cc(O)ccc3c2n1CC(C)(C)NS(C)(=O)=O	255 to 256 °C
CC1(COc2ccc(S(=O)(=O)C3SC(=O)NC3=O)cc2)CCCCC1 (configuration not stated)	174 to 175 °C
O=S1(=O)NC(C2=CCCCC2)Nc2cc(Cl)ccc21 (configuration not stated)	252 to 254 °C
Cc1cc(-c2ccc(C(F)(F)F)cc2)nc(-c2cccc(-c3cccc(S(N)(=O)=O)c3)n2)c1	229 °C
CNC(=O)C(CCN(C)C)(c1ccccc1)C(O)c1ccccc1 (configuration not stated)	107 to 115 °C

SMILES	melting point
CCCN(CCC)c1c(CC)nn2c(-c3c(C)cc(C)cc3OC)cccc12	72.3 to 74.6 °C
O=Cc1cccc(C=Cc2ccc3ccccc3n2)c1	78.6 to 80.8 °C
Cc1oc(-c2ccccc2)nc1CCOc1ccc(CCCCC2OC(=O)NC2=O)cc1 (configuration not stated)	136 to 137 °C
CC1CC2C3C=C(Cl)C4=CC(=O)CCC4(C)C3C(O)CC2(C)C1C(=O)CO (configuration not stated)	229 °C
O=C1NC(=O)C(CC#Cc2ccc(Cl)cc2)(S(=O)(=O)c2ccccn2)S1 (configuration not stated)	140 to 141 °C
CCc1ccc(C(=O)Cc2ccc(Br)cc2)cc1	146 °C
CN1C(=O)CCCc2ccc([N+](=O)[O-])cc21	151 to 152 °C
COc1cc2c3c(Br)cc(OC)c(OC)c3n(S(C)(=O)=O)c2cc1OC	178 to 179 °C
C1=CC(c2ccccc2)(c2ccc(N3CCOCC3)cc2)Oc2cc(N3CCOCC3)c3ccccc3c21 (configuration not stated)	187 to 188 °C
O=C(CC1c2ccccc2C(=O)N1c1ccc(Cl)cn1)N1CCCCC1 (configuration not stated)	165 to 166 °C
N#Cc1cc([N+](=O)[O-])ccc1N1CCCCC1	75 °C
COC1CC(C)(C)C(OC(=O)c2ccccc2)C(OC(=O)c2ccccc2)C=C1C (configuration not stated)	78 to 80 °C
O=S1(=O)NCNc2c(-c3ccccc3)cc(-c3ccccc3)cc21	222 to 225 °C
CCOc1ccccc1C(=O)Nc1cccc(C)c1C(N)=O	166 to 168 °C
CCCCn1c(=O)n(C(C)C)c(=O)c2[nH]c(C)nc21	172 to 173 °C
Cc1c(-c2ccc(Cl)c(Cl)c2)n(-c2ccccc2)c(-c2ccccc2)cc1=O	188 to 191 °C
CCCC1=C(C(=O)OCC)C(c2ccccc2Cl)c2cn(C)nc2N1 (configuration not stated)	150 to 151 °C
CC(=O)Oc1ccccc1CC1CNC(=O)O1 (configuration not stated)	98 to 99 °C
CCOc1cc2c(cc1O)C(=NO)CC1C2CCC2(C)C(OC(C)=O)CCC12 (configuration not stated)	226 to 227 °C
CCCCCCCCCCCCCCCCCCOCC(CBr)OCCCCCCCCCCCCCCCCCC (configuration not stated)	38 to 38.8 °C
CS(=O)(=O)OC1CCN(c2ccc(N)cc2)C1 (configuration not stated)	203 °C
CCCCCC(Cc1ccc(OC)c(OCCc2ccccc2)c1)NC(=O)OC(C)(C)C (configuration not stated)	91.5 to 92.5 °C
CC(C)(C)CN1C(=O)C2CC(c3ccc(N)cc3)(C2)C1=O	142 to 143 °C
Cc1cc(NC(=O)Cc2ccccc2)cc(C)c1S(=O)(=O)C[N+](=O)[O-]	158 to 159 °C
O=C(O)CCc1oc(Sc2nncn2-c2ccccc2)nc1-c1ccc(Cl)cc1	122 to 123 °C

SMILES	melting point
O=S(=O)(Nc1cc(-c2ncc(C(F)(F)F)cc2Cl)ccc1Cl)c1ccc(Cl)cc1	156 to 157 °C
C[C@]12C[C@H](c3ccc(O)cc3)C3=C4CCC(=O)C=C4CC[C@H]3[C@@H]1CCC2=O	220 °C
CC(C)(C)OC(=O)NCc1ccccc1	55.5 to 56.5 °C
C#CCOC(=O)c1ccc(Br)s1	65 to 68 °C
N#Cc1nn(-c2c(Cl)cc(C(F)(F)F)cc2Cl)c(N)c1C(=O)C(F)(F)F	226 °C
CCCOc1ccc(CO)nc1Cl	59 to 60 °C
COC(=O)c1[nH]c(-c2ccccc2)c(N=Cc2ccccc2)c1C(=O)OC	218 to 220 °C
CCOC(=O)CCCN(C(=O)c1ccc(F)cc1)c1ccccc1-c1ccccc1	83 to 84 °C
COC(=O)C(c1ccccc1)C1CCN(c2ccc([N+](=O)[O-])cc2)CC1 (configuration not stated)	124 °C
CC(=O)OC1CCC2(C)C(=CCC3C2CCC2(C)C(n4cnc5ccccc54)=C(C=O)CC32)C1 (configuration not stated)	227 to 230 °C
Cc1cc(C)cc(NCc2ccc3nc(NC4CCN(CC(N)=O)CC4)n(Cc4nc(C)ccc4O)c3c2)c1	206 °C
COc1cc2c(cc1Br)CC(=O)NN=C2c1ccc([N+](=O)[O-])cc1	245 to 256 °C
C=CCOC(=O)c1ccc(C(=O)SCc2ccc3c(c2)C(C)(C)CCC3(C)C)cc1	79 to 80 °C
Cc1cc(Oc2ccc(C(=O)O)cc2)ccc1[N+](=O)[O-]	187 to 190 °C
CCOC(=O)c1c(C(F)F)nc(C(F)(F)F)c(C(=O)OCC)c1-c1ccncc1	43 to 45 °C
CCNc1nc(-c2ccc(NC(=O)NCc3ccc(N)nc3)cc2)ccc1C(=O)NC	223 to 226 °C
Nc1nc(-c2ccccc2OCC(F)(F)F)[nH]c(=O)c1N=O	210 to 212 °C
CC(C)(C)OC(=O)NCC(COS(C)(=O)=O)NC(=O)OC(C)(C)C (configuration not stated)	94 to 96 °C
CNC(=O)N1CCC(C(c2ccc(F)cc2)N(CCc2ccccc2)C(=O)NC)CC1 (configuration not stated)	186 to 188 °C
COCOc1c(NC(=O)N(c2ccccc2)C2CCC(NC(=O)OCc3ccccc3)CC2)cc(OC)cc1C(C)(C)C (configuration not stated)	145 to 154 °C
COc1cc(C(=O)N2CCC(CCN3CCC(C(=O)c4nc5ccccc5n4Cc4ccc(F)cc4)CC3)(c3ccc4c(c3)OCO4)C2)cc(OC)c1OC (configuration not stated)	112 to 114 °C
O=[N+]([O-])c1cccc2cncc(Br)c12	172 to 174 °C
